Results: PMC6025191, “Heteronemin, a Marine Sesterterpenoid-Type Metabolite, Induces Apoptosis in Prostate LNcap Cells via Oxidative and ER Stress Combined with the Inhibition of Topoisomerase II and Hsp90” (Marine Drugs, 2018)

Biological target: T1, topoisomerase IIα (Homo sapiens, UniProt P11388)
T1 construct: gene TOP2A
Assay: cell-free DNA cleavage assay with pHOT1 plasmid ([…], induction of linear DNA)
Assay type: biochemical

T1 sequence (P11388 whole entry): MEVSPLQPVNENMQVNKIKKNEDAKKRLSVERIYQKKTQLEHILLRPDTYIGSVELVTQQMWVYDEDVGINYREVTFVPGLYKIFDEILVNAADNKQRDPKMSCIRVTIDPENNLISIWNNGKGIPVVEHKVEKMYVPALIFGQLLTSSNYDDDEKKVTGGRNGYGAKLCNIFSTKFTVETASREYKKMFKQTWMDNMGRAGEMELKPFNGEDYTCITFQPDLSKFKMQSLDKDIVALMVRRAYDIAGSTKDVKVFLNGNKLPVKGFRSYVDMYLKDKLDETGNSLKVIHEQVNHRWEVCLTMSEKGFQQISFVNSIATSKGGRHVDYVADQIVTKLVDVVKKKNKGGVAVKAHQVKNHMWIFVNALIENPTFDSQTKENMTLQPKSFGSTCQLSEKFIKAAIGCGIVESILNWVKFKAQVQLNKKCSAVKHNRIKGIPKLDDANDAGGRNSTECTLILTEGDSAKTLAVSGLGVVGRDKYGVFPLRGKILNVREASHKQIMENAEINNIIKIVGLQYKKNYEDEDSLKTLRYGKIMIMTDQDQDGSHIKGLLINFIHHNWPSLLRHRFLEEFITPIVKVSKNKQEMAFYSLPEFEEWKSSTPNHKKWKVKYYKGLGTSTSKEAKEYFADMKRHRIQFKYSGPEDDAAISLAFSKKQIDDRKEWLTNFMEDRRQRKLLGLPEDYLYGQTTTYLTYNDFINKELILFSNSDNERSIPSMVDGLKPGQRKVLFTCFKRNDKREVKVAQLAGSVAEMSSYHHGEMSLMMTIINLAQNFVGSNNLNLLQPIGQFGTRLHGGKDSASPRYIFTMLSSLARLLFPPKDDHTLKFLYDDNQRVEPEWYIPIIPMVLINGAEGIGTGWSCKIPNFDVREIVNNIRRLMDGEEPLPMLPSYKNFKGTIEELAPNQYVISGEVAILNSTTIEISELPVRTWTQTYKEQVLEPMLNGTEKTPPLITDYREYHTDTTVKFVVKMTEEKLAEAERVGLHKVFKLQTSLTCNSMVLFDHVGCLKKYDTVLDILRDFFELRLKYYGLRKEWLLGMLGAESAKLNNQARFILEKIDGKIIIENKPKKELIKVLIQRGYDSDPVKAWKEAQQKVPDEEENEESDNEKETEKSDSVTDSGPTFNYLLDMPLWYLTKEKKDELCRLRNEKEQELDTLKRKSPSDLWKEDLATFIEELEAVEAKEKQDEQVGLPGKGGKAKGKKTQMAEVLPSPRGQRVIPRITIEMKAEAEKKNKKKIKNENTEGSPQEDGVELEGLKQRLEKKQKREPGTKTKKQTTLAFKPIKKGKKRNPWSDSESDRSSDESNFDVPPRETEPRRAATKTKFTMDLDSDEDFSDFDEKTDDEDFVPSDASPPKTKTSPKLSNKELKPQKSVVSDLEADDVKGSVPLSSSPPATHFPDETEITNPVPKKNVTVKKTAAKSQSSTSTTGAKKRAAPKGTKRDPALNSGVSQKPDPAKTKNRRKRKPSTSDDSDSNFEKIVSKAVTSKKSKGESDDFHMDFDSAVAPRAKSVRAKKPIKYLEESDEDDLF

Question: Which “cell-free DNA cleavage assay with pHOT1 plasmid (500 μM, induction of linear DNA)” value does the source give for `COc1cc([C@@H]2c3cc4c(cc3[C@@H](O[C@@H]3O[C@@H]5CO[C@@H](C)O[C@H]5[C@H](O)[C@H]3O)[C@H]3COC(=O)[C@H]23)OCO4)cc(OC)c1O` [etoposide] here?
Answer: The value was “A linear DNA strand was observed upon treating the supercoiled pHOT1 plasmid DNA with etoposide, a standard topo II poison”.
